Results from US7588752B2, “Antimicrobial peptides” (The University of Melbourne, priority 1997, dated 2009).
No end group written: not given here.

Tests used:
[1] = test system: Streptococcus mutans Ingbritt; type: cell-based; conditions: RP-HPLC of endo Glu-C digest of TCA-soluble UF whey
Procedure: Peaks were collected and assayed for antimicrobial activity. Antimicrobial assays were carried out in liquid growth medium using sterile 96 well plates, each well having a capacity of 300 μL. The growth medium consisted of Todd Hewit broth (36.4 g/L), Yeast Extract (5.0 g/L) with 100 mmol/L potassium phosphate buffer. Routinely the pH of the growth medium was adjusted to 6.3. An inoculum of approximately 1.5×10^2 cells (Streptococcus sanguis, Streptococcus mutans, Porphyromonas gingivalis) that had been harvested during the exponential phase of growth, was added to each well. The ionophore gramicidin (40 μmol/L final concentration) was added to a series of wells as a negative control. Positive controls contained only the inoculum and the growth medium. Growth was determined over a 30 hour period after inoculation by measuring the optical density of the cell suspensions at a wavelength of 650 nm (OD650), using a microplate reader (Biorad, model 450). Growth was determined by subtracting the initial reading, taken immediately after inoculation from the final reading (maximum culture OD). […]

[2] = test system: Streptococcus sanguinis (formerly S. sanguis); test: Antibacterial growth assay in liquid medium, 96 well plates, OD 650 nm; type: cell-based; conditions: peaks of tryptic hydrolysate of sodium caseinate
Procedure: Hydrolysis was terminated by the addition of 1M HCl to pH 4.6. The hydrolysate was centrifuged (11,600 g for 10 min) and then filtered through a 0.2 μm PVDF filter before being applied to a 7 μm C8 (Brownlee) reversed-phase column (4.6×220 mm). The sample was eluted using an Applied Biosystems 140 A Solvent Delivery System to generate a stepwise linear gradient from 0-20% B in 2 min followed by 20-45% B in 40 min at a flow rate of 1 ml/min. Eluant A was 0.1% (v/v) TFA in water and eluant B was 80% (v/v) acetronitrile, 0.1% (v/v) TFA in water. The eluant was monitored using an Applied Biosystems 1000S Diode Array detector at a primary wavelength of 215 nm. Peaks were collected and assayed for antimicrobial activity. […] Growth was determined over a 30 hour period after inoculation by measuring the optical density of the cell suspensions at a wavelength of 650 nm (OD650), using a microplate reader (Biorad, model 450). Growth was determined by subtracting the initial reading, taken immediately after inoculation from the final reading (maximum culture OD). […]
The antibacterial assay was conducted in sterile 96 well plates (Becton Dickinson, Melbourne, Australia). […] Growth of the bacterium was determined as the difference between the final and initial Optical Density (OD) 650 nm readings using a microplate reader (BIORAD, model 450, NSW, Australia). […]

[3] = test system: Klebsiella pneumoniae; conditions: concentrations as low as 0.1 μM; injected intravenously before lethal infectious challenge; cited from earlier work
[4] = test system: Escherichia coli; conditions: cited from earlier work
[5] = test system: Staphylococuus carnosus; conditions: cited from earlier work

AVESTVATLEDSPEVIESPPE [Ser(P)^149 κ-casein A (138-158)]
antimicrobial activity against S. mutans [1]: exhibited antimicrobial activity

DMPIQAFLLYQQPVLGPVR (bovine) [β-casein (184-202)]
antimicrobial activity against Streptococcus sanguinis [2]: showed activity

PGPIPN (bovine) [β-casein (63-68), casein peptide of Migliore-Samour et al. (1989)]
protective effect in mice against Klebsiella pneumoniae infection [3]: significant protective effect

Ser(P)^149 κ-casein (117-169): tryptic casein peptide, genetic variant not specified ((SEQ ID NO:12) and (SEQ ID NO:14))
antimicrobial activity against Streptococcus sanguinis [2]: showed activity

TTMPLW (bovine) [αs1-casein (194-199), casein peptide of Migliore-Samour et al. (1989)]
protective effect in mice against Klebsiella pneumoniae infection [3]: significant protective effect

αs2-casein (fl72-203): antibacterial peptide from bovine αs2-casein released by treating milk with glacial acetic acid (Zucht et al., 1995) (QKFALPQYLKTVYQHQKAMKPWIQPKTKVIPY; UniProt P02663 187-218, looked up, fragment)
inhibition of growth of Escherichia coli [4]: inhibit the growth | inhibition of growth of Staphylococuus carnosus [5]: inhibit the growth
